Reference: ChEMBL document CHEMBL1201862, “PubChem BioAssay data set” (2004)
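Results reflect a 48-hour exposure of cells in 96-well plates to compound at five concentrations. GI50 is the concentration that inhibits growth by half.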 Calls of active or inactive are those of the source. Cut-off read from the data, not from the text of the source: active = GI50 up to about 1.1 µM and inactive = higher. Starred links: 1 amine or outer side, 2 acyl side, 3 side chain; linkers in the order of their positions; H or OH if unused. Positions of bridges follow the written chain, without caps; N, C: chain ends. Non-standard residues stand in square brackets, D forms with d. Residues, ends and D or L forms follow the SMILES beside them. ξ: configuration not given here. X11 = CCC(C)C(N[*:1])C(O)CC(=O)O[C@H](C(=O)C(C)C(=O)[*:2])C(C)C; X10 = O=C([C@@H]1CC(O)CN1[*:1])[*:2]; NMeY = CN[C@@H](Cc1ccc(O)cc1)C(=O)O; ξNMeL = CNC(CC(C)C)C(=O)O; ξT = CC(O)C(N)C(=O)O

Key:
Test in all cases: NCI anticancer screen, dose series, 48 h
786-0 = tested on: 786-0
A549 = tested on: A549
CAKI-1 = tested on: CAKI-1
COLO 205 = tested on: COLO 205
HOP-62 = tested on: HOP-62
HT-29 = tested on: HT-29
IGROV-1 = tested on: IGROV-1
MOLT-4 = tested on: MOLT-4
Malme-3M = tested on: Malme-3M
NCI-H226 = tested on: NCI-H226
NCI-H23 = tested on: NCI-H23
NCI-H522 = tested on: NCI-H522
OVCAR-5 = tested on: OVCAR-5
RPMI-8226 = tested on: RPMI-8226
SF-295 = tested on: SF-295
SK-MEL-28 = tested on: SK-MEL-28
SK-OV-3 = tested on: SK-OV-3
SNB-75 = tested on: SNB-75
SW-620 = tested on: SW-620
UO-31 = tested on: UO-31

| Structure (SMILES) | GI50 (786-0) | GI50 (A549) | GI50 (CAKI-1) | GI50 (COLO 205) | GI50 (HOP-62) | GI50 (HT-29) | GI50 (IGROV-1) | GI50 (MOLT-4) | GI50 (Malme-3M) | GI50 (NCI-H226) | GI50 (NCI-H23) | GI50 (NCI-H522) | GI50 (OVCAR-5) | GI50 (RPMI-8226) | GI50 (SF-295) | GI50 (SK-MEL-28) | GI50 (SK-OV-3) | GI50 (SNB-75) | GI50 (SW-620) | GI50 (UO-31) |
| --- | --- | --- | --- | --- | --- | --- | --- | --- | --- | --- | --- | --- | --- | --- | --- | --- | --- | --- | --- | --- |
| CCOC(=O)c1ccc(C(=O)C(C(C)=O)C(=O)OC(C)(C)C)[nH]1 (stereo not given) | > 100 µM (inactive) | > 100 µM (inactive) | > 100 µM (inactive) | > 100 µM (inactive) | > 100 µM (inactive) | > 100 µM (inactive) | > 100 µM (inactive) | > 100 µM (inactive) | > 100 µM (inactive) | > 100 µM (inactive) | > 100 µM (inactive) | > 100 µM (inactive) | > 100 µM (inactive) | > 100 µM (inactive) | > 100 µM (inactive) | > 100 µM (inactive) | > 100 µM (inactive) | > 100 µM (inactive) | > 100 µM (inactive) | > 100 µM (inactive) |
| C[C@@H]1O[C@]2(O)[C@@H]3CCCN3S(=O)(=O)CCN2C1=O | > 100 µM (inactive) | > 100 µM (inactive) | > 100 µM (inactive) | > 100 µM (inactive) | > 100 µM (inactive) | > 100 µM (inactive) | > 100 µM (inactive) | > 100 µM (inactive) | > 100 µM (inactive) | > 100 µM (inactive) | > 100 µM (inactive) | > 100 µM (inactive) | > 100 µM (inactive) | > 100 µM (inactive) | > 100 µM (inactive) | > 100 µM (inactive) | > 100 µM (inactive) | > 100 µM (inactive) | > 100 µM (inactive) | > 100 µM (inactive) |
| CCC(C)C1NC(=O)C(NC(=O)C(CC(C)C)N(C)C(=O)[C@@H]2CC(O)CN2)C(C)OC(=O)[C@H](Cc2ccc(OC)cc2)N(C)C(=O)[C@@H]2CCCN2C(=O)[C@H](CC(C)C)NC(=O)C(C)C(=O)[C@H](C(C)C)OC(=O)CC1O (stereo not given in full) (H-[X10][ξNMeL][ξT][X11]LP[NMeY](Me); ester 3-C) | 0.0121 µM (active) | 0.0228 µM (active) | 0.232 µM (active) | 0.00309 µM (active) | 0.00931 µM (active) | 0.00445 µM (active) | 0.00272 µM (active) | 0.00161 µM (active) | 0.00336 µM (active) | 0.00182 µM (active) | 0.01 µM (active) | 0.00488 µM (active) | 0.0275 µM (active) | 0.0082 µM (active) | 0.0113 µM (active) | < 0.001 µM (active) | 0.00321 µM (active) | 0.0106 µM (active) | 0.0108 µM (active) | 0.233 µM (active) |
| C[C@]12CC[C@H](O[C@@H]3O[C@H](CO[C@@H]4O[C@H](CO)[C@@H](O)[C@H](O)[C@H]4O)[C@@H](O)[C@H](O)[C@H]3O)C[C@@H]1CC[C@@H]1[C@@H]2CC[C@]2(C)[C@@H](C3=CC(=O)OC3)CC[C@]12O [UZARIN] | 43.6 µM (inactive) | 5.33 µM (inactive) | 13.7 µM (inactive) | 50.1 µM (inactive) | 13.7 µM (inactive) | 35.8 µM (inactive) | 10.7 µM (inactive) | 4.02 µM (inactive) | 17.5 µM (inactive) | 42.2 µM (inactive) | 11.1 µM (inactive) | 7.91 µM (inactive) | 27.4 µM (inactive) | 43.4 µM (inactive) | 17.3 µM (inactive) | > 80 µM (inactive) | 35.3 µM (inactive) | 28.4 µM (inactive) | 31.6 µM (inactive) | 25.1 µM (inactive) |
